From US5428053A, “1-aminoacetamidopyrroles and 1-amino acetamido-2-(substituted) pyrroles and related compounds” (priority 1993, dated 1995)
Structures can show the parent of a compound that is named as a salt. Where two headings read alike, the source gives them in different places.

Assays:
[1] = target: T1, glycine binding site associated with the N-methyl-D-aspartate (NMDA) receptor complex (Rattus norvegicus, UniProt P35439); test: biochemical; design: species or system rat (male Wistar, cortex)
T1 construct: Cortices of male Wistar rats are dissected over ice; from tissue; host or cells: cerebral cortex of male Wistar rats, Triton X-100 treated washed membranes
Procedure: This procedure is a modification of the method described by Monahan et al.^1
1. Buffer A: 0.5M Tris maleate, pH 7.4 59.3 g Tris maleate bring to 0.5 l Adjust pH to 7.4 with 0.5M Tris base
2. Buffer B: 50 mM Tris maleate, pH 7.4 Dilute Buffer A 1:10 with distilled water, adjust pH with 50 mM Tris maleate (acid) or 50 mM Tris base.
3. […] Aliquots of 20 μl to the assay tube will give a final concentration of 10^-3 M.
4. […] Aliquots of 50 μl are added to yield a final assay concentration of 10 nM.
6. Triton-X 100, 10% (v/v). A stock solution of Triton-X 100, 10% can be prepared and stored in the refrigerator. Dilute 1.0 ml of Triton-X 100 to 10.0 ml with distilled water. On the day of the assay, the tissue homogenate (1:15 dilution) is preincubated with an aliquot of the 10% solution to give a final concentration of 0.04% (v/v).
Cortices of male Wistar rats are dissected over ice and homogenized in ice-cold 0.32M sucrose (1:15 w/v) for 30 seconds with a Tissumizer setting at 70. Three cortices are pooled for one preparation. The homogenate is centrifuged at 1,000 g for 10 minutes. The supernatant is centrifuged at 20,000 g for 20 minutes. Resuspend the pellet in 15 volumes of ice-cold distilled water (Tissumizer setting 70, 15 sec) and spin at 7,600 g for 20 minutes. Save the supernatant, swirl off the upper buffy layer of the pellet and add to the supernatant. Centrifuge the supernatant at 48,000 g for 20 minutes. Resuspend the pellet with 15 volumes of cold distilled water and centrifuge. Discard the supernatant and store the pellet at -70° C.
On the day of the assay, resuspend the pellet in 15 volumes ice-cold 50 mM Tris maleate, pH 7.4. Preincubate the homogenate with Triton-X in a final concentration of 0.04% (v/v) for 30 minutes at 37° C. with agitation. Centrifuge the suspension at 48,000 g for 20 minutes. Wash the pellet an additional 3 times by resuspension with cold buffer and centrifugation. The final pellet is resuspended in a volume 25 times the original net weight.
1. Prepare assay tubes in triplicate.
50 μl Buffer A, 0.5M Tris maleate, pH 7.4
or appropriate concentration of inhibitor
500 μl Tissue homogenate
2. Following the addition of the tissue, the tubes are incubated for 20 minutes in an ice-bath at 0°-4° C. Terminate the binding by centrifugation for 20 minutes. Return the tubes to ice. Aspirate and discard the supernatant. Carefully rinse the pellet twice with 1 ml ice-cold buffer, avoiding disruption of the pellet. Transfer the pellet to scintillation vials by vortexing the pellet with 2 ml of scintillation fluid, rinse the tubes twice with 2 ml and add an additional 4 ml of scintillation fluid.
3. […] IC50 values for the competing compound are calculated by log-probit analysis of the data.

[2] = target: T2, NMDA associated strychnine-insensitive glycine modulatory site (Rattus norvegicus, UniProt P35439); test: biochemical; design: species or system rat (male Sprague Dawley, cortical tissue); conditions: for EC50: 2.5 nM [3H]TCP, L-glutamic acid 10^-7 M, read-out: ENHANCEMENT OF [3H]TCP BINDING EC50
T2 construct: cortical tissue obtained from male Sprague Dawley rats; from tissue; host or cells: cortical tissue of male Sprague Dawley rats, crude synaptosomal homogenate, lysed and washed

[3] = Enhancement of step-down passive avoidance in rats; type: in vivo, rat (male Sprague Dawley); conditions: ip, 30 min prior, 24 hrs after acquisition
Procedure: In this assay, rats step off a wooden platform and subsequently receive a low-level foot shock. After 24 hours, the rats are observed for their ability to acquire and remember a passive avoidance behavior, that is, to stay on the platform. Male Sprague Dawley rats (Charles River) weighing 275-325 g were used in the passive avoidance procedure. Following a 11/2 week acclimation to the vivarium (5 rats per cage) where food and water were available ad libitum, rats were transported to the laboratory on day 1 of testing and acclimated to the experimental area and the investigator. Rats were labeled (tails marked) and handled by the investigator, then gently placed on a wooden platform (14×10.5×3.5 cm) in the experimental chamber (30.5×25×27 cm.) The chamber is equipped with a single house light and white noise generator to mask extraneous sounds. Once the animal stepped off the platform (all 4 paws touching the grid floor where grids are equally spaced every 2 cm), it was picked up by the base of the tail and returned to the home cage and then to the vivarium. On day 2, rats were returned to the laboratory and again acclimated to the experimental area for 30 min. Rats were intraperitoneally administered vehicle or compounds 30 min. prior to testing in a dosage volume of 1 ml/kg. Then the rats were gently placed on the wooden platform and their latency (in sec.) to step-down was recorded. When all four paws touched the grid, a low level 0.28 mA electric shock was delivered for 3 sec. by means of a Coulbourn Instruments grid floor shocker. Rats were immediately removed from the experimental chamber to their home cage when the shock ceased. […] Fifteen minutes later, this procedure was repeated. Rats were then returned to the vivarium. […] The latencies of each drug group on day 3 (24 hrs. following acquisition) was compared to the latencies of the vehicle control group by the non-parametric Mann-Whitney U test.

NMDA receptor = test: Stimulation of [3H]TCP binding by NMDA in extensively washed rat cortical membranes; conditions: glycine 1 μM added to NMDA
[4] = T-maze reinforced alternation task in rats (scopolamine-induced deficit); type: in vivo, rat (male Wistar); conditions: i.p.
Procedure: Male Wistar rats (Charles River) weighing 450-700 g were used in the T-maze procedure. Rats were housed (3 rats per cage) under standard laboratory conditions in the vivarium where food and water were available ad libitum. During training and testing, animals were transported to the dimly lit test room and acclimated for 30 min. The Lafayette Instruments T-maze consisted of a start box (30×20 cm), an alley way to the choice point (30×20 cm), a choice point area (25×25 cm), and two goal areas (30×20 cm) with a shock grid (grids every 11/2 cm) serving as the floor of the maze. Each session in the maze was controlled by a microprocessor.
Initially, animals were trained to greater than 70% choice accuracy in the maze for five consecutive days each week over a two week period. Following a 10 min. habituation to the maze, training commenced. All reinforced alternation sessions consisted of ten pseudo randomly paired trials. The first trial of each pair was the forced trial where the animal was forced to go to either the left or right goal box, since only one goal box door was open. The second trial was the choice trial where both goal box doors were open and the correct response was to enter the opposite goal to that entered on the previous forced run trial.
Each trial began when the rat was placed in the start box and allowed 15 sec. to enter the appropriate goal box. […] Following a 30 sec. intertrial interval (ITI), the next trial commenced. If during the choice trial, the rat entered the incorrect goal box (same goal entered during the forced trial), the guillotine door was closed and the rat received 5 electric shocks during the first 15 sec. of the 30 sec. ITI. All choices and latencies during the 10 paired trials were recorded by the computer controlled printer.
Animals which met criteria during training ([…]) were considered trained colony animals and were tested every other week. Testing was conducted over 3 consecutive days. Control sessions for baseline responding were conducted on days 1 and 2 so that the mean percentage of correct choices for each animal to qualify for drug testing was set at ≥70% correct choices.
The next time these animals were tested, they were administered pharmacological agents i.p. (at appropriate pretreatment times) in combination with scopolamine to measure effectiveness in reversing scopolamine-induced deficits in choice accuracy.
For statistical analysis, the means of each treatment group (drug+scopolamine) were compared to the mean of both the scopolamine alone group and the control group by the Dunnett's test.

[5] = read-out: % OF MAXIMAL GLYCINE RESPONSE
[6] = read-out: % OF MAXIMAL GLYCINE RESPONSE, concentration 10 μM

| Structure (SMILES) | IC50 [1] [µM] | EC50 [2] [µM] | % Change from Control (median latency to step-down) ([3]; 10 mg/kg) | % Change from Control (median latency to step-down) ([3]; 20 mg/kg) | other results |
| --- | --- | --- | --- | --- | --- |
| COc1ccc(C(=O)c2cccn2NC(=O)CN)cc1 [2-amino-N-[2-(4-methoxybenzoyl)-1H-pyrrol-1-yl]acetamide] | 6.6 | 2 |  |  | Emax at 100 µM ([2]; read-out: % OF MAXIMAL GLYCINE RESPONSE, concentration 100 μM): 89% |
| COc1ccccc1C(=O)c1cccn1NC(=O)CN.Cl [2-amino-N-[2-(2-methoxy-benzoyl)-1H-pyrrol-1-yl]-acetamide hydrochloride] |  |  | +37% |  | % Change from Control (median latency to step-down) ([3]; 1.25 mg/kg): +237%; % Change from Control (median latency to step-down) ([3]; 5 mg/kg): +80% |
| Cl.NCC(=O)Nn1cccc1 [2-Amino-N-1H-pyrrol-1-ylacetamide Hydrochloride] | 14.8 | 92 | +281% | +625% | % Change from Control (median latency to step-down) ([3]; 80 mg/kg): +512%; Emax at 100 µM [2, 5]: 65% |
| NCC(=O)Nn1cccc1C(=O)c1cccs1 [2-Amino-N-[2-(2-thienylcarbonyl)-1H-pyrrol-1-yl]acetamide Hydrochloride] | 6 | 0.38 |  |  | Emax at 10 µM [2, 5]: 78% |
| NCC(=O)Nn1c(Cl)ccc1C(=O)c1ccccc1F [2-amino-N-[5-chloro-2-(2-fluorobenzoyl)-1H-pyrrol-1-yl]acetamide hydrobromide] | 6 | 1.7 |  |  | Emax at 30 µM ([2]; read-out: % OF MAXIMAL GLYCINE RESPONSE, concentration 30 μM): 65% |
| NCC(=O)O [glycine] |  |  |  |  | potentiation of the maximal effect of NMDA on [3H]TCP binding (factor) (NMDA receptor): 1.7 |
| N[C@@H]1CONC1=O [D-cycloserine] |  |  |  |  | % Change from Control (median latency to step-down) ([3]; 5 mg/kg): +120%; Mean % of Correct Choice ([4]; with scopolamine, 1/3 mg/kg (scopolamine/drug)): 59%; Mean % of Correct Choice ([4]; with scopolamine, 1/10 mg/kg (scopolamine/drug)): 61% |
| NCC(=O)Nn1cccc1C(=O)c1ccccc1Cl [2-amino-N-[2-(2-chloro-benzoyl)-1H-pyrrol-1-yl]-acetamide hydrochloride] | 22.5 | 3 |  |  | Emax at 10 µM [2, 5]: 56% |
| CC(=O)c1cccn1NC(=O)CN [N-(2-Acetyl-1H-pyrrol-1-yl)-2-aminoacetamide Hydrochloride] | 22.5 | 1.3 |  |  | Emax at 10 µM [2, 5]: 71% |
| NCC(=O)Nn1cccc1C(=O)c1cccc(F)c1.O=C(O)/C=C/C(=O)O [2-amino-N-[2-(3-fluorobenzoyl)-1H-pyrrol-1-yl]acetamide fumarate] | 4.8 | 0.6 | +343% | +257% | % Change from Control (median latency to step-down) ([3]; 5 mg/kg): +457%; Emax at 10 µM [2, 6]: 76% |
| CN1[C@@H]2C[C@@H](OC(=O)[C@H](CO)c3ccccc3)C[C@H]1[C@@H]1O[C@@H]12 [Scopolamine] |  |  |  |  | choice accuracy (overall responding at chance levels) ([4]; scopolamine 1 mg/kg, 30 min pretreatment): 50%; Mean % of Correct Choice ([4]; scopolamine alone 1 mg/kg): 45% |
| NCC(=O)Nn1cccc1C(=O)c1ccccc1F [2-amino-N-[2-(2-fluorobenzoyl)-1H-pyrrol-1-yl]acetamide hydrobromide hemihydrate] | 11.2 | 3.1 | +471% | +836% | Mean % of Correct Choice ([4]; with scopolamine, 1/20 mg/kg (scopolamine/drug)): 64%; Emax at 10 µM [2, 6]: 77% |
| NCC(=O)Nn1cccc1C(=O)c1ccccc1C(F)(F)F [2-amino-N-[2-(2-trifluoro-methyl)benzoyl)-1H-pyrrol-1-yl]acetamide hydrobromide] |  |  | +77% | +122% | % Change from Control (median latency to step-down) ([3]; 5 mg/kg): +900%; % Change from Control (median latency to step-down) ([3]; 40 mg/kg): +33% |
| Cl.NCC(=O)Nn1cccc1Cl [2-Amino-N-(2-chloro-1H-pyrrol-1-yl)acetamide Hydrochloride] |  |  | +158% | +25% | % Change from Control (median latency to step-down) ([3]; 40 mg/kg): +133% |
